{
  "source": "patent US20160067272A1",
  "about": "“METHODS FOR TREATING IMMUNE DISEASES” (priority 2013, published 2016)",
  "key": {"[1]": {"system": "naïve CD4+ T cells", "assay": "Naïve CD4+ T cell differentiation without polarizing cytokines (Th0)", "type": "cell-based, mouse", "description": "It has been shown that NAD^+ can regulate T cell activation^36-38, but its role in T cell development was not shown. In this study, it was tested whether NAD^+ was able to regulate T cell differentiation in vitro. Naïve CD4^+ T cells were isolated from spleen of DBA mice and cultured for 96 hrs in presence of increasing NAD^+ concentration and in presence of recombinant IL-2 and stimulated with anti-CD3/CD28 antibodies. Cytokine expression and secretion were analyzed by flow cytometry and ELISA, respectively. […] Of note, the production of pro-inflammatory cytokines such as IL-6 and TNF-α or the immunosuppressive cytokine IL-10 were inhibited by NAD^| (FIG. 7A).\n(§1) Single-cell leukocyte suspensions were obtained from spleens from 8-10 week old DBA mice and CD4^− T cells were isolated by negative selection using a CD4^+ T cell isolation kit (MILTENYI BIOTEC, Bergisch Gladbach, Germany). Cells were further sorted using α-CD4-PE (EBIOSCIENCE, San Diego, Calif.) and purities of CD4^+ T cells after isolation were >98%.\n(§2) All recombinant cytokines and antibodies were purchased from EBIOSCIENCE except recombinant TGF-β cytokine (R&D SYSTEMS, Minneapolis, Minn.). After 96 hrs of culture supernatants and cells were collected and analyzed by ELISA and flow cytometry, respectively.\n(§3) Fluorescently labeled anti-mouse α-CD4 (GK1.5), α-CD25 (PC61), α-IFN-γ (XMG1.2) and unlabeled α-CD16/CD32 (2.4G2) antibodies were obtained from BD BIOSCIENCES (San Jose, Calif.). Fluorescently labeled anti-mouse α-IL-4 (FJK-16s), α-IL-10 (JES5-16E3), α-IL-17A (eBio17B7), and anti-TGFβ (TW7-16B4) were obtained from eBIOSCIENCE (San Diego, Calif.). Intracellular staining for IL-4, IL-10, IL-17A, IFNγ and TGFβ was performed according to manufacturers' protocols. Splenocytes were re-stimulated in complete media (RPMI media containing 10% FCS, 1% L-Glutamine, 1% Penicillin/Streptomycin; all Bio Whittaker, Walkersville, Md.) for 4 hours at 37° C. with ionomycin, phorbol 12-myristate 13-acetate and Brefelding A (EBIOSCIENCE). Cells were fixed and permeabilized using CYTOFIX/CYTOPERM solution (BD BIOSCIENCES). Flow cytometry measurements of single-cell suspensions were performed on a FACSCalibur using standard procedures and data were analyzed using FLOWJO software (TREE STAR, Ashland, Oreg.)."}, "[2]": {"system": "naïve CD4+ T cells", "assay": "Naïve CD4+ T cell differentiation under Th2 polarizing conditions", "type": "cell-based, mouse", "description": "Next, the effects of NAD^+ on activated CD4+ T cells were tested in Th2 polarizing conditions. […] In the absence of NAD^−, CD4^+ T cells cultured in Th2 cytokine environment barely produced IL-17A cytokine while in the presence of increasing concentrations of NAD^+, cultured cells produced large amounts (>2000 pg/ml) in a dose dependent manner (FIG. 2A). […] In contrast, production of the pro-inflammatory cytokine TNF-α was inhibited in the presence of NAD^− (FIG. 7D). […] Thus, these findings indicate that NAD^+ drives the switch from classical Th2/IL-10^+ toward Th2/IL-17A^+ producing cells.\nas §1, §2, §3"}, "[3]": {"system": "naïve CD4+ T cells", "assay": "Naïve CD4+ T cell differentiation under Th17 polarizing conditions", "type": "cell-based, mouse", "from_the_text": "To elucidate the role of NAD^+ on CD4^− T cell differentiations in Th17 polarizing conditions, isolated naïve CD4^+ T cells were activated with anti-CD3/CD28 antibodies in the presence of recombinant TGFβ, IL-6 and anti-IL-4, anti-IL-12, and anti-IFNγ antibodies. […] Of note, expression of the pro-inflammatory cytokine TNF-α was inhibited in presence of NAD^+ (FIG. 1E).\nas §1, §2, §3"}, "[4]": {"system": "tryptophan hydroxylase-1 (Tph-1) and carboxypeptidase A3 (CA3)", "assay": "Gene expression in CD4+ T cells (microarray, qPCR)", "type": "cell-based, mouse", "from_the_text": "After successive washes, RNA was eluted."}, "[5]": {"system": "Human nTregs", "assay": "Human nTreg conversion into IL-17A producing cells", "type": "cell-based", "description": "Several discrepancies have been reported for mechanisms promoting Th17 cell development in mice and human^15. […] In addition, it has been shown that IL-2 inhibits Th17 development^16. In contrast, human Th17 differentiation requires IL-1β and IL-6 and can be inhibited by TFG-β and IL-2^34. […] Therefore, it was tested whether NAD^+ was a universal molecule that was able to enhance nTreg conversion into Th17 cells in human and mice as well. Human nTregs were isolated and cultured in presence of increasing NAD^− concentrations and IL-2. […] Of note, human nTregs conversion into IL-17A^+ producing cells remained CD4^+CD25^+.\nFor isolation of human Treg cells, peripheral blood mononuclear cells were obtained from young healthy volunteers using density gradient centrifugation with Ficoll-Paque (STEMCELL TECHNOLOGIES, Vancouver, BC, Canada). Non-CD4^+ T cells were then depleted using biotin-conjugated monoclonal anti-human antibodies against CD8, CD14, CD15, CD16, CD19, CD36, CD56, CD123, TCRγ/δ, CD235a (Glycophorin A) and anti-biotin magnetic beads (Miltenyi Biotec). […]\nFor cultivation of human Treg cells, recombinant human IL-2 (EBIOSCIENCE) and superparamagnetic beads coupled with human α-CD3 and α-CD28 (LIFE TECHNOLOGIES, Carlsbad, Calif.) were used. Cells were cultured during 10 days and analyzed by flow cytometry."}},
  "data": [
    {"smiles": "NC(=O)c1ccc[n+]([C@@H]2O[C@H](COP(=O)([O-])OP(=O)(O)OC[C@H]3O[C@@H](n4cnc5c(N)ncnc54)[C@H](O)[C@@H]3O)[C@@H](O)[C@H]2O)c1", "note": "[NAD+, nicotinamide adenine dinucleotide]", "values": [
      {"measurement": "IFNγ cytokine production", "setting": "[1]; Th0, 96 hrs, ELISA", "result": "promote a robust"},
      {"measurement": "IL-4 cytokine production", "setting": "[1]; Th0, 96 hrs, ELISA", "result": "inhibit"},
      {"measurement": "IL-6 production", "setting": "[1]; Th0, 96 hrs, ELISA", "result": "inhibited"},
      {"measurement": "IL-10 production", "setting": "[1]; Th0, 96 hrs, ELISA", "result": "inhibited"},
      {"measurement": "IL-17 cytokine production", "setting": "[1]; Th0, 96 hrs, ELISA", "result": "promote a robust"},
      {"measurement": "TNF-α production", "setting": "[1]; Th0, 96 hrs, ELISA", "result": "inhibited"},
      {"measurement": "CD4+IFNγ+ cell frequency", "setting": "[1]; Th0, flow cytometry", "result": "increased"},
      {"measurement": "CD4+IL-4+ cell frequency", "setting": "[1]; Th0, flow cytometry", "result": "reduced"},
      {"measurement": "CD4+IL-17+ cell frequency", "setting": "[1]; Th0, flow cytometry", "result": "increased"},
      {"measurement": "TGFβ production", "setting": "[1]; Th0 polarizing conditions", "result": "no TGFβ production"},
      {"measurement": "IL-4 cytokine production", "setting": "[2]; 96 hrs, ELISA", "result": "did not affect"},
      {"measurement": "IL-10 cytokine production", "setting": "[2]; 96 hrs, ELISA", "result": "reduced"},
      {"measurement": "IL-13 cytokine production", "setting": "[2]; ELISA", "result": "did not affect"},
      {"measurement": "TNF-α production", "setting": "[2]; ELISA", "result": "inhibited"},
      {"measurement": "CD4+IL10+ cell frequency", "setting": "[2]; flow cytometry", "result": "decreased number"},
      {"measurement": "CD4+IL17A+ cells", "setting": "[2]; flow cytometry", "result": "increased number"},
      {"measurement": "CD4+IL-4+ cell frequency", "setting": "[2]; flow cytometry", "result": "no changes"},
      {"measurement": "IL-17A secretion", "setting": "[2]; increasing NAD+, dose dependent, ELISA", "result": "> 2000", "unit": "pg/mL"},
      {"measurement": "IL-10 cytokine production", "setting": "[3]; ELISA", "result": "reduced"},
      {"measurement": "IL-17 cytokine production", "setting": "[3]; ELISA", "result": "did not affect"},
      {"measurement": "TNF-α expression", "setting": "[3]; ELISA", "result": "inhibited"},
      {"measurement": "CD4+IL-17A+ cells", "setting": "[3]; flow cytometry", "result": "no changes"},
      {"measurement": "carboxypeptidase A3 (CA3) (microarray)", "setting": "[4]; during CD4+ T helper cell differentiation", "result": "activate"},
      {"measurement": "Tph-1 expression (qPCR)", "setting": "[4]; with vs without NAD+", "result": "up-regulation"},
      {"measurement": "IL-17A cytokine production", "setting": "[5]; increasing NAD+ and IL-2, ELISA", "result": "enhance"},
      {"measurement": "number of IL-17A+ cells", "setting": "[5]; increasing NAD+ and IL-2, flow cytometry", "result": "increased"}
    ]}
  ]
}
